Values of other authors as cited in patent publication US20220257540A1, “COMPOSITIONS AND METHODS FOR TREATMENT OF HEPATITIS B VIRUS INFECTION” (ANHUI RONGHANG BIOTECH DEVELOPMENT CO., LTD., priority 2019, published 2022).

Target: P-gp (Homo sapiens, UniProt P08183)
Settings: cited from earlier work

Sequence of P-gp (P08183 whole entry): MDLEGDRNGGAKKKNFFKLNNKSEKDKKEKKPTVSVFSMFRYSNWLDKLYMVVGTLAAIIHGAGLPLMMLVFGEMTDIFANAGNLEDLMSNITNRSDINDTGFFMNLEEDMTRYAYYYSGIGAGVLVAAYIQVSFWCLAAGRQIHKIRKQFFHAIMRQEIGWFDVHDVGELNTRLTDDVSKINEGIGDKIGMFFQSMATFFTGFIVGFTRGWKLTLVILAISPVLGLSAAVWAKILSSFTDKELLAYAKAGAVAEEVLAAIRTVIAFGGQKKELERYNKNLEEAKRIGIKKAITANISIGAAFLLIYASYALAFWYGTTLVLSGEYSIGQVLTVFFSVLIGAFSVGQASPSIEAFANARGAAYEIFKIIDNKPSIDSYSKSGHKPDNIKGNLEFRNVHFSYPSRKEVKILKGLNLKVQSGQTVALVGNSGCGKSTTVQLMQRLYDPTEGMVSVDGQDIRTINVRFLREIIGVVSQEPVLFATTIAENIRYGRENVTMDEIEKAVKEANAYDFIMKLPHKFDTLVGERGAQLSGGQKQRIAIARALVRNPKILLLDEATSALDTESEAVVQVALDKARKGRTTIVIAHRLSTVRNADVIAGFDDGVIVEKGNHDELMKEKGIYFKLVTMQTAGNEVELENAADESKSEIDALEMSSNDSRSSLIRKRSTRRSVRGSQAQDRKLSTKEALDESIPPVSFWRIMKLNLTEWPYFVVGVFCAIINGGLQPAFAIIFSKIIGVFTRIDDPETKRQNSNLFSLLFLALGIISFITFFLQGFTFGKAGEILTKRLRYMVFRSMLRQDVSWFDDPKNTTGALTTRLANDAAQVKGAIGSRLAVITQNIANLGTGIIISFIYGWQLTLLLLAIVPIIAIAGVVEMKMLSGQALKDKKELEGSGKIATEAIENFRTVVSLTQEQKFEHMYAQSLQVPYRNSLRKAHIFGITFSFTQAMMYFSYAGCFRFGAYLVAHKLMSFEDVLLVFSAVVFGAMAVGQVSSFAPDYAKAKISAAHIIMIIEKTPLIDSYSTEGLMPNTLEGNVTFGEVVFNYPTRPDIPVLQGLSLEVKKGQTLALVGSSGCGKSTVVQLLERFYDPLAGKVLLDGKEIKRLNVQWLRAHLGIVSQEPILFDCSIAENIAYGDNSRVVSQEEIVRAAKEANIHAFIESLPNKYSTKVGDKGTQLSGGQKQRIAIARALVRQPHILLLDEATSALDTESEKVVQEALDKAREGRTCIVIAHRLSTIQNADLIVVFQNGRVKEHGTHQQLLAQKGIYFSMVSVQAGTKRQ

Compound	potency relative to the first and second-generation P-gp inhibitors
COc1cc2c(cc1OC)CN(CCc1ccc(NC(=O)c3cc(OC)c(OC)cc3NC(=O)c3cnc4ccccc4c3)cc1)CC2 [XR9576, N-[2-[[4-[2-(6,7-Dimethoxy-3,4-dihydro-1H-isoquinolin-2-yl)ethyl]phenyl]c-arbamoyl]-4,5-dimethoxyphenyl]quinoline-3-carboxamide]	about 10 fold
CCOC/C=C/c1ccc(-c2nc(-c3ccc(NC(C)C)cc3)c(-c3ccc(NC(C)C)cc3)[nH]2)cc1 [OC144093, 4-[2-[4-[(E)-3-ethoxyprop-1-enyl]phenyl]-4-[4-(propan-2-ylamino)phenyl]-1H-imidazol-5-yl]-N-propan-2-ylaniline]	about 10 fold
